From patent publication US6451807B1, “Methods of treating sexual dysfunction in an individual suffering from a retinal disease, class 1 congestive heart failure, or myocardial infarction using a PDE5 inhibitor” (Lilly Icos, LLC., priority 1999, dated 2002)

Biological target: T1, PDE1c (Homo sapiens, UniProt Q14123)
T1 construct: made in house; host or cells: Spodoptera frugiperda Sf9 cells
Assay: PDE1c enzyme inhibition, IC50 determination
Type: biochemical
Conditions: read-out: IC50 against PDE1c
Description: Cell pellets (5g) were thawed on ice with 20 ml of Lysis Buffer (50 mM MOPS pH 7.4, 10 μM ZnSO4, 0.1 mM CaCl2, 1 mM DTT, 2 mM benzamidine HCl, 5μg/ml each of pepstatin, leupeptin, and aprotenin). Cells were lysed by passage through a French pressure cell (SLM-Aminco) while temperatures were maintained below 10° C. The resultant cell homogenate was centrifuged at 36,000 rpm at 4° C. for 45 minutes in a Beckman ultracentrifuge using a Type TI45 rotor. The supernatant was discarded and the resultant pellet was resuspended with 40 ml of Solubilization Buffer (Lysis Buffer containing 1M NaCl, 0.1M MgCl2, 1 mM CaCl2, 20 μg/ml calmodulin, and 1% Sulfobetaine SB12 (Z3-12) by sonicating using a VibraCell tuner with a microtip for 3×30 seconds. This was performed in a crushed ice/salt mix for cooling. Following sonication, the mixture was slowly mixed for 30 minutes at 4° C. to finish solubilizing membrane bound proteins. This mixture was centrifuged in a Beckman ultracentrifuge using a type TI45 rotor at 36,000 rpm for 45 minutes. The supernatant was diluted with Lysis Buffer containing 10 μg/ml calpain inhibitor I and II. The precipitated protein was centrifuged for 20 minutes at 9,000 rpm in a Beckman JA-10 rotor. The recovered supernatant then was subjected to Mimetic Blue AP Agarose Chromatography. […]

T1 sequence (Q14123 whole entry, species assumed): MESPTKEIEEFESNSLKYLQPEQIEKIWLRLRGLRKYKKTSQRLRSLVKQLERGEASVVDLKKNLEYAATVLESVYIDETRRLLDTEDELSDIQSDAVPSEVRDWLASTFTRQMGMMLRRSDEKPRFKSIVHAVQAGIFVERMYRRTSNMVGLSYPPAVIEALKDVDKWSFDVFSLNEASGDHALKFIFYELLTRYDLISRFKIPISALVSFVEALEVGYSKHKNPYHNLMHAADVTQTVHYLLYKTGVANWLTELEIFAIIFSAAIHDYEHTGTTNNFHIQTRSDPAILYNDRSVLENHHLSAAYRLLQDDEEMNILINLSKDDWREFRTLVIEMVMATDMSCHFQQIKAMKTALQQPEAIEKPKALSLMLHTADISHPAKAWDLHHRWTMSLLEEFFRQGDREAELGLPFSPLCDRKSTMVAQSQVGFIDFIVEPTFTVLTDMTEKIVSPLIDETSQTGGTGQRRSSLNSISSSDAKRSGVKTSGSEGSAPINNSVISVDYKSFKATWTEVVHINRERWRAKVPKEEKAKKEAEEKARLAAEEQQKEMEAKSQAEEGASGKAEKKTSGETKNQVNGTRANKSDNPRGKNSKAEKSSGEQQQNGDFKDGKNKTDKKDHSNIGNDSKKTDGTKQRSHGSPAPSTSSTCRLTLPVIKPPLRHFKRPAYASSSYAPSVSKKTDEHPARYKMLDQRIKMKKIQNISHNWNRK

CN1CC(=O)N2[C@H](c3ccc4c(c3)OCO4)c3[nH]c4ccccc4c3C[C@@H]2C1=O [Compound 5, (6R-trans)-6-(1,3-benzodioxol-5-yl)-2,3,6,7,12,12a-hexahydro-2-methylpyrazino[1′,2′:1,6]pyrido[3,4-b]indole-1,4-dione]
IC50: 10 µM
